pIC50: −log10 of the molar value.
Legend:
PTPN1 (i.e., PTP1B) = molecular target: T1, PTPN1 (i.e., PTP1B) (Homo sapiens, UniProt P18031); assay: Phosphatase activity assay (DiFMUP substrate), PTP1B; assay type: biochemical; conditions: compounds binned ≤1 uM or >1 uM
T1 sequence (P18031 1-435): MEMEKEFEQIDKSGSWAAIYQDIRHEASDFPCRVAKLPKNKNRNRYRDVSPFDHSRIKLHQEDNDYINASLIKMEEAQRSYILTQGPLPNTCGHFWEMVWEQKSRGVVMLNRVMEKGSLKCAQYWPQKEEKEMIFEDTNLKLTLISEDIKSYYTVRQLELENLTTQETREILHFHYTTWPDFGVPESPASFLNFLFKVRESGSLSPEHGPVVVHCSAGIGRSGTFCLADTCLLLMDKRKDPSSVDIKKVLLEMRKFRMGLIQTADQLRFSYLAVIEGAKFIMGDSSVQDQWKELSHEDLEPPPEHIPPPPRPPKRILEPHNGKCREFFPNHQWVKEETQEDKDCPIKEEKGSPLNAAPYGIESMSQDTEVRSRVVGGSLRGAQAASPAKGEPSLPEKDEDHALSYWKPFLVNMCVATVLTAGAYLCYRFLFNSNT
Experimental: (§1) The selectivity and potency of a small molecule PTPN2 inhibitor as provided herein against one or more protein tyrosine phosphatase (PTP) enzymes, and specifically against PTPN2, is assessed in various ways. The one or more PTP enzymes comprise Mycobacterium protein tyrosine phosphatase A (mPTPA), Mycobacterium protein tyrosine phosphatase B (mPTPB), PTPN1 (i.e., PTP1B), PTPN2 (i.e., TC-PTP), PTPN22 (i.e., LYP), SHP-1, SHP-2, FAP-1, Meg2, HePTP, Laforin, VHX, VHR, LMWPTP, Cdc14A, LAR, CD45, PTPRG, a fragment thereof, a variant thereof, and a combination thereof. Selectivity and potency of a small molecule PTPN2 inhibitor is evaluated using a PTP activity inhibition assay. The assay is performed using a buffer comprising 50 mM HEPES buffer pH 7.5, 150 mM NaCl, 0.5 mM EDTA, 1 mM DTT, 0.001% Tween-20.
(§2) The assay is performed using a phosphated substrate, e.g., 10 mM 6,8-Difluoro-4-Methylumbelliferyl Phosphate (DIFMUP) that is stored at −20° C. Alternatively or in addition to, the assay is performed using other phosphated substrate (e.g., fluorescein diphosphate). Each PTP enzyme is diluted in the assay buffer
(§3) The assay can be carried out at room temperature in multiplate format, e.g., using 384 well plates. A small molecule PTPN2 inhibitor dissolved in DMSO at one of 10 concentrations from a serial dilution or DMSO alone for control is added to each well. A mixture of the assay buffer comprising PTP enzyme (e.g., 0.025 ng/ul PTPN2) is added to each well and mixed for approximately 2 minutes. The reaction is initiated by adding DiFMUP diluted in the assay buffer to a final concentration of approximately 45 μM DiFMUP in PTPN2 assay. For each PTP enzyme, DiFMUP is added at the Km (Michaelis constant) of the enzyme that had been independently determined. The phosphatase activity of the PTP enzyme is assessed by monitoring appearance of a fluorescent product (6,8-difluoro-7-hydroxyl-4-coumarin (DiFMU) from DiFMUP) continuously for about 15 to 30 minutes, using the INFINITE M1000Pro plate reader (Tecan) with excitation at 360 nm and emission at 450 nm (cutoff filter at 435 nm) for DiFMU. Each assay is performed at least in duplicate. The rate (e.g., the initial rate) of DiFMU formation is plotted against the concentration of the small molecule PTPN2 inhibitor, and the data is fitted (e.g., using a 4-parameter equation) to determine the inflection point of the fit as the IC50 of the small molecule PTPN2 inhibitor for a specific enzyme. Utilizing this assay, the ability of the compounds in Table 2 to inhibit PTPN2 and PTP1B has been assessed. Table 3 summarizes the IC50 values.

PTPN2 (i.e., TC-PTP) = molecular target: T2, PTPN2 (i.e., TC-PTP) (Homo sapiens, UniProt P17706); assay: Phosphatase activity assay (DiFMUP substrate), PTPN2; assay type: biochemical; conditions: compounds binned ≤1 uM or >1 uM
T2 sequence (P17706 1-415): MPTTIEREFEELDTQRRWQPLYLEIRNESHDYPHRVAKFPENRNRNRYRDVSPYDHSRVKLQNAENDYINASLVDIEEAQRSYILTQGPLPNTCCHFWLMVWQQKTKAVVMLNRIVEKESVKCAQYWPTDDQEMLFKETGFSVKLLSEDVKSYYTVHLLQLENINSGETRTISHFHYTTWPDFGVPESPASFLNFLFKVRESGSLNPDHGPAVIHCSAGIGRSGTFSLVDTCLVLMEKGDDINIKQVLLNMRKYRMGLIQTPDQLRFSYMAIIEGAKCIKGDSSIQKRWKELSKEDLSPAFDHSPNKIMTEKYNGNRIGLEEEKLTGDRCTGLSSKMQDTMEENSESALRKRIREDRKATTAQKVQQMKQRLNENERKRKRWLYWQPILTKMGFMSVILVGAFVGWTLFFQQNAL
Experimental: as §1, §2, §3

| pIC50 (PTPN1 (i.e., PTP1B)) | pIC50 (PTPN2 (i.e., TC-PTP)) | SMILES |
| --- | --- | --- |
| < 6.00 | < 6.00 | O=C1CN(c2c(O)ccc(-n3cc(C4CC4)cn3)c2F)S(=O)(=O)N1 [Compound 270, 5-(3-(4-cyclopropyl-1H-pyrazol-1-yl)-2-fluoro-6-hydroxyphenyl)-1,2,5-thiadiazolidin-3-one 1,1-dioxide] |
| ≥ 6.00 | ≥ 6.00 | Cc1noc(C)c1Cn1cc(-c2ccc(O)c(N3CC(=O)NS3(=O)=O)c2F)cn1 [Compound 309, 5-(3-(1-((3,5-dimethylisoxazol-4-yl)methyl)-1H-pyrazol-4-yl)-2-fluoro-6-hydroxyphenyl)-1,2,5-thiadiazolidin-3-one 1,1-dioxide] |
| ≥ 6.00 | ≥ 6.00 | O=C1CN(c2c(O)ccc(C3=CCN(CC4CCCCC4)C3)c2F)S(=O)(=O)N1 [Compound 267, 5-(3-(1-(cyclohexylmethyl)-2,5-dihydro-1H-pyrrol-3-yl)-2-fluoro-6-hydroxyphenyl)-1,2,5-thiadiazolidin-3-one 1,1-dioxide] |
| < 6.00 | < 6.00 | CC1NCC=C1c1ccc(O)c(N2CC(=O)NS2(=O)=O)c1F (centres unmarked) [Compound 512, 5-(2-fluoro-6-hydroxy-3-(2-methyl-2,5-dihydro-1H-pyrrol-3-yl)phenyl)-1,2,5-thiadiazolidin-3-one 1,1-dioxide] |
| ≥ 6.00 | ≥ 6.00 | CC1(N)CCN(c2cc(-c3ccc(O)c(N4CC(=O)NS4(=O)=O)c3F)[nH]n2)C1 (centres unmarked) [Compound 279, 5-(3-(3-(3-amino-3-methylpyrrolidin-1-yl)-1H-pyrazol-5-yl)-2-fluoro-6-hydroxyphenyl)-1,2,5-thiadiazolidin-3-one 1,1-dioxide] |
| ≥ 6.00 | ≥ 6.00 | Cn1nc(C2CC2)cc1-c1ccc(O)c(N2CC(=O)NS2(=O)=O)c1F [Compound 278, 5-(3-(3-cyclopropyl-1-methyl-1H-pyrazol-5-yl)-2-fluoro-6-hydroxyphenyl)-1,2,5-thiadiazolidin-3-one 1,1-dioxide] |
| ≥ 6.00 | ≥ 6.00 | O=C1CN(c2c(O)ccc(-c3cc(C4CC4CO)n[nH]3)c2F)S(=O)(=O)N1 (centres unmarked) [Compound 501, 5-(2-fluoro-6-hydroxy-3-(3-(2-(hydroxymethyl)cyclopropyl)-1H-pyrazol-5-yl)phenyl)-1,2,5-thiadiazolidin-3-one 1,1-dioxide] |
| ≥ 6.00 | ≥ 6.00 | Cc1ncc(-c2ccc(O)c(N3CC(=O)NS3(=O)=O)c2F)o1 [Compound 101, 5-(2-fluoro-6-hydroxy-3-(2-methyloxazol-5-yl)phenyl)-1,2,5-thiadiazolidin-3-one 1,1-dioxide] |
| ≥ 6.00 | ≥ 6.00 | O=C1CN(c2c(O)ccc(-c3cnn(C4CCC4)c3)c2F)S(=O)(=O)N1 [Compound 194, 5-(3-(1-cyclobutyl-1H-pyrazol-4-yl)-2-fluoro-6-hydroxyphenyl)-1,2,5-thiadiazolidin-3-one 1,1-dioxide] |
| ≥ 6.00 | ≥ 6.00 | COC(=O)C1C=C(c2ccc(O)c(N3CC(=O)NS3(=O)=O)c2F)CN1 (centres unmarked) [Compound 399, methyl 4-(3-(1,1-dioxido-4-oxo-1,2,5-thiadiazolidin-2-yl)-2-fluoro-4-hydroxyphenyl)-2,5-dihydro-1H-pyrrole-2-carboxylate] |
| ≥ 6.00 | ≥ 6.00 | O=C1CN(c2c(O)ccc(-c3cc(N4CCC5(CCC5)C4)n[nH]3)c2F)S(=O)(=O)N1 [Compound 248, 5-(3-(3-(6-azaspiro[3.4]octan-6-yl)-1H-pyrazol-5-yl)-2-fluoro-6-hydroxyphenyl)-1,2,5-thiadiazolidin-3-one 1,1-dioxide] |
| ≥ 6.00 | ≥ 6.00 | O=C1CN(c2c(O)ccc(-c3cc(CC(F)F)n[nH]3)c2F)S(=O)(=O)N1 [Compound 524, 5-(3-(3-(2,2-difluoroethyl)-1H-pyrazol-5-yl)-2-fluoro-6-hydroxyphenyl)-1,2,5-thiadiazolidin-3-one 1,1-dioxide] |
| ≥ 6.00 | ≥ 6.00 | CC(C)CCc1cnc(-c2ccc(O)c(N3CC(=O)NS3(=O)=O)c2F)[nH]1 [Compound 262, 5-(2-fluoro-6-hydroxy-3-(5-isopentyl-1H-imidazol-2-yl)phenyl)-1,2,5-thiadiazolidin-3-one 1,1-dioxide] |
| ≥ 6.00 | ≥ 6.00 | O=C1CN(c2c(O)ccc(-c3cc(C#CC4CC4)n[nH]3)c2F)S(=O)(=O)N1 [Compound 352, 5-(3-(3-(cyclopropylethynyl)-1H-pyrazol-5-yl)-2-fluoro-6-hydroxyphenyl)-1,2,5-thiadiazolidin-3-one 1,1-dioxide] |
| ≥ 6.00 | ≥ 6.00 | CC(C)Cn1cc(-c2ccc(O)c(N3CC(=O)NS3(=O)=O)c2F)cn1 [Compound 149, 5-(2-fluoro-6-hydroxy-3-(1-isobutyl-1H-pyrazol-4-yl)phenyl)-1,2,5-thiadiazolidin-3-one 1,1-dioxide] |
| ≥ 6.00 | ≥ 6.00 | Cc1csc(-c2ccc(O)c(N3CC(=O)NS3(=O)=O)c2F)c1 [Compound 103, 5-(2-fluoro-6-hydroxy-3-(4-methylthiophen-2-yl)phenyl)-1,2,5-thiadiazolidin-3-one 1,1-dioxide] |
| ≥ 6.00 | ≥ 6.00 | O=C1CN(c2c(O)ccc(-c3cc(C4CC4)nn3CC3CC3)c2F)S(=O)(=O)N1 [Compound 239, 5-(3-(3-cyclopropyl-1-(cyclopropylmethyl)-1H-pyrazol-5-yl)-2-fluoro-6-hydroxyphenyl)-1,2,5-thiadiazolidin-3-one 1,1-dioxide] |
| ≥ 6.00 | ≥ 6.00 | Cc1nc(-c2ccc(O)c(N3CC(=O)NS3(=O)=O)c2F)cn1C [Compound 199, 5-(3-(1,2-dimethyl-1H-imidazol-4-yl)-2-fluoro-6-hydroxyphenyl)-1,2,5-thiadiazolidin-3-one 1,1-dioxide] |
| ≥ 6.00 | ≥ 6.00 | CC(C)CCc1cc(-c2ccc(O)c(N3CC(=O)NS3(=O)=O)c2F)[nH]n1 [Compound 389, 5-(2-fluoro-6-hydroxy-3-(3-isopentyl-1H-pyrazol-5-yl)phenyl)-1,2,5-thiadiazolidin-3-one 1,1-dioxide] |
| ≥ 6.00 | ≥ 6.00 | CN1CC(n2cc(-c3ccc(O)c(N4CC(=O)NS4(=O)=O)c3F)cn2)C1 [Compound 310, 5-(2-fluoro-6-hydroxy-3-(1-(1-methylazetidin-3-yl)-1H-pyrazol-4-yl)phenyl)-1,2,5-thiadiazolidin-3-one 1,1-dioxide] |
| ≥ 6.00 | ≥ 6.00 | CC(C)c1cc(-c2ccc(O)c(N3CC(=O)NS3(=O)=O)c2F)nn1C [Compound 447, 5-(2-fluoro-6-hydroxy-3-(5-isopropyl-1-methyl-1H-pyrazol-3-yl)phenyl)-1,2,5-thiadiazolidin-3-one 1,1-dioxide] |
| ≥ 6.00 | ≥ 6.00 | O=C1CN(c2c(O)ccc(C3=CCN(S(=O)(=O)c4ccccc4)C3)c2F)S(=O)(=O)N1 [Compound 404, 5-(2-fluoro-6-hydroxy-3-(1-(phenylsulfonyl)-2,5-dihydro-1H-pyrrol-3-yl)phenyl)-1,2,5-thiadiazolidin-3-one 1,1-dioxide] |

Reference: patent publication US20240398828A1, “HETERO-ATOM CONTAINING COMPOUNDS AND USES THEREOF” (Kumquat Biosciences Inc., priority 2021, published 2024)
